Source: patent US20060099681A1, “Human and mouse alkaline ceramidase 1 and skin diseases” (U.S. DEPARTMENT OF VETERANS AFFAIRS, priority 2004, published 2006)

Biological target: T1, mouse alkaline ceramidase 1 (maCER1) (Mus musculus, UniProt Q8R4X1)
T1 construct: The ORF of the mouse alkaline ceramidase was amplified from the mouse liver cDNA library; made in house; host or cells: Saccharomyces cerevisiae mutant strain Δypc1Δydc1 (microsomes, galactose-induced, pYES2-FLAG-maCER1)
T1 sequence (Q8R4X1 1-273): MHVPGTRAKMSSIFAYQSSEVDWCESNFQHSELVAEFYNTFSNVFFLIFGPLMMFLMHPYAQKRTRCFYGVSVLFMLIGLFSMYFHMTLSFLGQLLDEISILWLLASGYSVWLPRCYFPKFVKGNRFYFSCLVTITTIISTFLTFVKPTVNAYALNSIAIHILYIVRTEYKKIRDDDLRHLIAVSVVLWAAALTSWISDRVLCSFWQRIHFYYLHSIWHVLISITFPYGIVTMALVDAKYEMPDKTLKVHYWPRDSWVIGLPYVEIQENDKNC
Assay: Ceramidase activity assay with maCER1-containing yeast microsomes (release of NBD-fatty acid from D-e-C12-NBD-ceramide)
Type: biochemical
Details: FIG. 4C; for effect of sphingoid base on ceramidase activity (in words): same concentration range as sphingosine
Experimental: The microsomes, as in FIGS. 2A-D were assayed for ceramidase activity using D-e-C12-NBD-ceramide (200 μM) as substrate at different pH in the presence of 0.2% NP-40 and 5 mM Ca^2+ (FIG. 4A), at pH 8.5 in the presence of different cations (FIG. 4B), or different sphingoid bases (FIG. 4C). Results are the mean±SD of three independent experiments performed in duplicate.
maCER1 was expressed in yeast cells as described (Reference 21). Briefly, the expression construct pYES2-FLAG-maCER1 or the empty vector pYES2-FLAG was transformed into the yeast strain Δypc1Δydc1. Expression of the FLAG-tagged maCER1 was induced by 2% galactose.
Ceramidase activity was determined by the release of NBD-fatty acid from fluorescent substrates, NBD-C12-ceramide, dihydroceramide, or phytoceramide as described (Reference 21). Briefly, 20 μl of microsomes (containing 10-20 μg proteins) in buffer B (25 mM Tris-HCl, pH 8.0, 5 mM CaCl2) was mixed with 20 μl of 200 μM NBD-ceramide in buffer B with 0.4% NP-40 in a 1.5 ml microfuge tube. After incubation at 37° C. for 30-60 min, the reactions were stopped by boiling for 5 min, and dried under a SpeedVec. The released NBD-fatty acid was separated from NBD-ceramide by TLC in a solvent of chloroform:methanol: ammonium hydroxide (90:30:0.5) and quantified by PhosphorImager set at the fluorescent mode. To determine the pH optimum of maCER1, the maCER1 microsomes were resuspended in buffer C (1 mM Tris-HCl, pH 7.4, containing 5 mM CaCl2). To determine a cation effect, the maCER1 microsomes were resuspended in buffer A without CaCl2.

| IC50 (maCER1 microsomes, substrate D-e-C12-NBD-ceramide (200 μM), read-out: IC50 for the inhibition of ceramidase activity) | SMILES | effect of sphingoid base on ceramidase activity (in words) |
| --- | --- | --- |
|  | CCCCCCCCCCCCCCC[C@@H](O)[C@@H](N)CO [dihydrosphingosine, D-erythro-dihydrosphingosine] | neither phytosphingosine nor dihydrosphingosine in the same concentration range were inhibitory |
|  | CCCCCCCCCCCCCC[C@@H](O)[C@@H](O)[C@@H](N)CO [phytosphingosine, D-ribo-phytosphingosine] | neither phytosphingosine nor dihydrosphingosine in the same concentration range were inhibitory |
| ~80 µM | CCCCCCCCCCCCC/C=C/[C@@H](O)[C@@H](N)CO [sphingosine, D-erythro-sphingosine] |  |
